{"source": "paper PMC7363588", "about": "“Mapping of the FGF14:Nav1.6 complex interface reveals FLPK as a functionally active peptide modulating excitability” (Physiological Reports, 2020)", "target": "T1, FGF14^V160A (Homo sapiens, UniProt Q92915, V155A)", "T1 construct": "aa 64–252); 6X His (N); made in house; host or cells: E. coli BL21 (DE3) pLys", "T1 sequence (Q92915 64-252 isoform Q92915-2 V160A)": "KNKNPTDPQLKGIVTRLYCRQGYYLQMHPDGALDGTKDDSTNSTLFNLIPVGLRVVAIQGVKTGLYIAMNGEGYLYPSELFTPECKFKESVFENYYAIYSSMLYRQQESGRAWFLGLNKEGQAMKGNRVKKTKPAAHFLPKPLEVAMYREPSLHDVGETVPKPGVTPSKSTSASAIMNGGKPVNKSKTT", "experiment": "SPR binding to FGF14^V160A", "description": "Plasmids used in this study derived from the following clones: human FGF14‐1b isoform (accession number: NM_175929.2) and human Nav1.6 (accession number: NM_014191.3). The CLuc‐FGF14, CD4‐Nav1.6‐NLuc, constructs and the pcDNA3.1 vector (Invitrogen, Carlsbad, CA) were engineered and characterized as previously described (Goetz et al., 2009; Shavkunov et al., 2012,2013,2015; Ali et al., 2016, 2018; Wadsworth et al., 2019). The plasmid pGL3 expressing full length Firefly (Photinus pyralis) luciferase was a gift from Dr. P. Sarkar (Department of Neurology, UTMB). For protein purification studies, cDNAs encoding FGF14‐1b (accession number NP_787125; aa 64–252) or the C‐terminal tail of Nav1.6 (accession number #NP_001171455; aa 1756–1939) were subcloned into suitable pET bacterial expression vectors (pET28a‐FGF14; pET30a‐Nav1.6) with a 6X His‐tag at the N‐terminal site; these plasmids were a gift of Dr. Moosa Mohammadi (NYU, Langone Medical Center). The mutation coding for FGF14^V160A was generated by site‐directed mutagenesis and PCR using FGF14‐1b as a template described previously (Ali et al., 2016). For electrophysiological studies FGF14‐GFP (human) and FGF14‐ΔNT‐GFP (human) were cloned into the GFP plasmid (pQBI‐fC2; Quantum Biotechnology Inc., Montreal, Canada) as previously described.\nUpon transformation with corresponding cDNA clones, the recombinant proteins FGF14, FGF14^V160A and Nav1.6 C‐terminal tail were expressed in E. coli BL21 (DE3) pLys (Invitrogen) after induction with 0.1 mM isopropyl thio‐β‐D‐galacto‐pyranoside (IPTG) for 24 hr at 16°C. […]\nSPR experiments were performed on a Biacore T100 (GE Healthcare Bio‐Sciences, Pittsburgh, PA), and the interaction of FGF14 and Nav1.6 channel toward FLPK, PLEV and EYYV (1–100 µM) were studied at 25°C. […] Maximal equilibrium responses were plotted against peptide concentrations and association rate constant (kon), dissociation rate constatnt (koff) were determined. […]", "key": {"[1]": {"conditions": "CM5, 25°C, 1–100 µM, RU 18,000, N.M. = not measurable"}}, "note": "“Also recorded” adds a separate entry of the source. Peptide text beside a SMILES is read from it."}
{"smiles": "CC(=O)N[C@@H](Cc1ccccc1)C(=O)N[C@@H](CC(C)C)C(=O)N1CCC[C@H]1C(=O)N[C@@H](CCCCN)C(N)=O", "note": "[FLPK] (Ac-FLPK-NH2)", "values": [{"measurement": "koff, dissociation rate constant", "setting": "[1]", "value": "N.M."}, {"measurement": "kon, association rate constant", "setting": "[1]", "value": "N.M."}, {"measurement": "binding to FGF14^V160A", "setting": "peptide 1–100 µM", "value": "no measurable binding; also recorded: no binding of FLPK was detected"}]}
